According to US8957106B2, “Iminosugar treatment of tumors” (The Chancellor, Masters and Scholars of the University of …, priority 2007, dated 2015):

Tests used:
MelJuSo melanoma cells = assay: MTS cell viability assay, MelJuSo; assay type: cell-based; conditions: Homo sapiens, MEL-JUSO, 24 h, read-out: IC50 (concentration reducing number of viable cells by 50%)
Experimental: (§1) Cells were cultured at indicated densities for 24 h, medium was removed and the incubation was continued in a fresh culture medium containing various GC2 or DTIC concentrations. In control experiments, cells were grown in a culture medium containing GC2 buffer.
(§2) The standard […] (MTS)-3-(4,5-dimethylthiazol-2-yl)-5-(3-carboxymethoxyphenyl)-2-(4-sulphophenyl)-2H-tetrazolium inner salt solution assay was performed in order to examine the cytotoxic/cytostatic effect of GC2 on melanoma cells. Briefly, 7.5×10^3 cells were seeded in 96-well microtiter plates (Nunc). After an overnight incubation, serial dilutions of GC2 or DTIC were added in triplicate to a final volume of 100 μl. The blank was represented by a culture medium without cells containing the highest GC2 or DTIC concentration. After 24 h of incubation 20 μl MTS was added to each well and all samples were incubated for 3 h at 37° C. An absorbance of each well was read at 450 nm in a microplate reader. A percentage of cell viability was calculated considering that 100% cell viability was represented by an absorbance of untreated samples […]. Alternatively, the number of viable cells was determined by Trypan blue exclusion test. Melanoma cells treated with GC2 were trypsinized and cells negative for blue staining (viable cells) were counted using a hemocytometer. […]

SKMel28 melanoma cells = assay: MTS cell viability assay, SKMel28; assay type: cell-based; conditions: Homo sapiens, SK-MEL-28, SKMel28, 24 h, read-out: IC50 (concentration reducing number of viable cells by 50%)
Experimental: as §1, §2

MelJuSo cells = assay: Cell cycle distribution analysis (PI, flow cytometry), MelJuSo; assay type: cell-based, human; conditions: 6 μM, 24 h
Experimental: Cell cycle analysis in melanoma cells treated with GC2 was performed by determining DNA content using propidium iodide (PI) staining. PI intercalates into the major groove of double stranded DNA and produces a highly fluorescent adduct that can be excited at 488 nm and with a broad emission centered at 600 nm, see e.g. Krishan A. J. Cell. Biol. 66, 188, 1975. Melanoma cells (20×10^4) were cultured in 25 cm^2 tissue culture flasks for 24 h, followed by a further incubation for indicated time periods with 6 μM GC2. After treatment, adherent cells were trypsinized and a number of viable cells was determined by trypan blue exclusion. […] cells were re-suspended in 200 μl FACS buffer (2% FCS in PBS) and fixed with 600 μl absolute methanol, dropwise added under gentle vortexing, for at least 2 h at −20° C. Fixed cells were washed with FACS buffer, centrifuged for 5 min at 1500 rpm, at 4° C., and incubated for 30 min, in the dark, at room temperature (RT) with 200 μl PI staining solution in 3.8 mM sodium citrate (10 μl RNaze 10 μg/ml previously boiled for 5 min and 1 μl PI 10 mg/ml). The staining solution was removed by centrifugation and the cell pellet was re-suspended in 200 μl FACS buffer. Samples were analyzed for DNA content using a FACScan™ using CellQuest™ software (Becton Dickinson, San Jose, Calif.). […]

B16F10 cells = assay: Growth rate by Trypan blue exclusion, drug scheduling and progenies; assay type: cell-based, murine
Experimental: The standard methanethiosulfonate (MTS)-3-(4,5-dimethylthiazol-2-yl)-5-(3-carboxymethoxyphenyl)-2-(4-sulphophenyl)-2H-tetrazolium inner salt solution assay was performed in order to examine the cytotoxic/cytostatic effect of GC2 on melanoma cells. Briefly, 7.5×10^3 cells were seeded in 96-well microtiter plates (Nunc). After an overnight incubation, serial dilutions of GC2 or DTIC were added in triplicate to a final volume of 100 μl. The blank was represented by a culture medium without cells containing the highest GC2 or DTIC concentration. After 24 h of incubation 20 μl MTS was added to each well and all samples were incubated for 3 h at 37° C. An absorbance of each well was read at 450 nm in a microplate reader. A percentage of cell viability was calculated considering that 100% cell viability was represented by an absorbance of untreated samples (blank absorbance). Alternatively, the number of viable cells was determined by Trypan blue exclusion test. Melanoma cells treated with GC2 were trypsinized and cells negative for blue staining (viable cells) were counted using a hemocytometer.
In order to be successful, chemotherapy schedule can be set based on a type of targeted cells, a rate, at which the cells divide, and a time, at which a given drug is likely to be effective. Melanoma cells have versatile mechanisms to survive treatments with most chemotherapeutical drugs. Whether a specific scheduling of GC2 therapy is important was investigated by studying how a growth rate of melanoma cells is affected by incubation with a single dose of GC2 for a prolonged time period and with multiple GC2 doses freshly added every 24 h. Because of its high proliferation rate, a metastatic cell line B16F10 was selected for these experiments. The cells were cultured for 72 h under the following conditions: 1) in the absence of GC2 (control sample-C), 2) with a single GC2 dose of 6.0 μM (sample-S), and 3) with multiple GC2 doses of 6.0 μM freshly added every 24 h ([…]). A number of viable cells was determined by Trypan blue exclusion test and a growth rate was calculated in order to estimate an anti-proliferative effect of GC2. Under normal drug-free conditions, B16F10 cells approximately double their number every 24 h (FIG. 4A). Incubation with a single dose of GC2 decreased the growth rate from 2.29 to 1.26 for 24 h incubation and from 7.26 to 3.7 for 72 h incubation. […] Cells treated with GC2 freshly added every 24 h had the lowest growth rate of 2.02.
Equal numbers of B16F10 cells previously cultured for 72 h 1) without GC2 (C), 2) in the presence of a single GC2 dose of 6 μM (S) or 3) multiple GC2 doses of 6 μM freshly added every 24 h (S*) were further incubated either without GC2 (0 μM) or with a lower GC2 concentration (3 μM). At the end of a 48 h incubation period a number of viable cells was determined by Trypan blue exclusion test and a percentage of cell growth was calculated considering a cell number cultured with 3 μM of GC2 for 48 h to be 100%. Cells cultured with a single dose of GC2 for 72 h followed by 48 h without the drug proliferated at a rate of 99%. The rate decreased to 70% after the additional 48 h incubation of these cells in the presence of 3 μM GC2 (FIG. 4C). […] The lowest growth rate, (5%) was registered for the cells previously exposed to multiple doses of freshly added drug for 72 h and then further grown for 48 h in the presence of 3 μM GC2.

CC(=O)O.CCCCCCCCCN1[C@@H](CO)[C@@H](O)[C@H](O)[C@@H]1CCCCCCCC [GC2, (2S,3R,4R,5S)-3,4-dihydroxy-N-nonyl-5-octyl-2 hydroxymethylpyrrolidinium acetate]
IC50 (MelJuSo melanoma cells): 7 to 8 µM
IC50 (SKMel28 melanoma cells): 7 to 8 µM
number of cells in G2 phase (MelJuSo cells; untreated 17.7%): 8.48%
proportion of surviving cells in G0/G1 phase (MelJuSo cells; untreated 51.20%): 60.00%
activity at 3 µM (B16F10 cells; Mus musculus, B16-F10, multiple 6 μM doses 72 h, then 48 h with 3 μM GC2, read-out: growth rate of progenies (% of control growth)): 5%
activity at 6 µM (B16F10 cells; Mus musculus, B16-F10, single 6 μM dose 72 h, then 48 h without drug, read-out: proliferation rate of progenies (% of control growth)): 99%
proliferation rate of progenies (% of control growth) (B16F10 cells; multiple 6 μM doses 72 h, then 48 h without drug): 43%
growth rate (ratio of cell number to initial cell number) (B16F10 cells; multiple 6.0 μM doses freshly added every 24 h, 72 h, control 7.26): 2.02
proliferation rate of progenies (% of control growth) (B16F10 cells; single 6 μM dose 72 h, then 48 h with 3 μM GC2): 70%
growth rate (ratio of cell number to initial cell number) (B16F10 cells; single dose 6.0 μM, 24 h incubation, control 2.29): 1.26
growth rate (ratio of cell number to initial cell number) (B16F10 cells; single dose 6.0 μM, 72 h incubation, control 7.26): 3.7
